This is an account of results in patent US20230234967A1, “Fused Azole Heterocycles as AHR Antagonists” (Senda Biosciences, Inc., priority 2021, published 2023).

SMILES strings stand for the structures.

What all share (format): in vitro ADME
The nature of series [1]: Hepatocyte Stability Assay, human hepatocytes. The settings on record: cryopreserved human hepatocytes, read-out: Human hepatocyte clearance. As for the experimental part: (§1) Example 32: Hepatocyte Stability Assay
(§2) Preparation of working solutions: 10 mM stock solutions of test compound and positive control were prepared in DMSO. In separate conical tubes, the 10 mM solution of test compound and the positive control were diluted to 100 μM by combining 198 μL of 50% acetonitrile/50% water and 2 μL of 10 mM stock.
Preparation of Hepatocytes: Incubation medium (William's E Medium supplemented with GlutaMAX) and hepatocyte thawing medium were placed in a 37° C. water bath and allowed warming for at least 15 minutes prior to use. A vial of cryopreserved hepatocytes was transferred from storage, ensuring that vials remained at cryogenic temperatures until thawing process ensued. Cells were thawed by placing the vial in a 37° C. water bath and gently shaking the vials for 2 minutes. After thawing was completed, vial was sprayed with 70% ethanol and transferred to a biosafety cabinet. Wide-bore pipette tip were used to transfer hepatocytes into 50 mL conical tube containing thawing medium. The 50 mL conical tube were placed into a centrifuge and spun at 100 g for 10 minutes. Upon completion of spin, thawing medium was aspirated and resuspended hepatocytes in enough incubation medium to yield ˜1.5×10^6 cells/mL. Using an AO/PI Staining, cells were counted and the viable cell density was determined. Cells with poor viability (<75% viability) were determined to be not acceptable for use. Cells were diluted with incubation medium to a working cell density of 0.5×10^6 viable cells/mL.
Procedure for Stability Determination: 198 μL of hepatocytes were pipetted into each wells of a 96-well non-coated plate. The plate was placed in the incubator to allow the hepatocytes to warm for 10 minutes. 2 μL of the 100 μM test compound or positive control solutions were pipetted into respective wells of the 96-well non-coated plate to start the reaction. The plate was returned to the incubator for the designed time points. Well contents was transferred in 25 μL aliquots at time points of 0, 15, 30, 60, 90 and 120 minutes. The aliquots were then mixed with 6 volumes (150 μL) of acetonitrile containing internal standard, IS (100 nM alprazolam, 200 nM caffeine and 100 nM tolbutamide) to terminate the reaction. The mixture was vortex for 5 minutes. Samples were centrifuged for 45 minutes at 3,220 g. An aliquot of 100 μL of the supernatant was diluted by 100 μL ultra-pure water, and the mixture was used for LC/MS/MS analysis. All incubations were performed in duplicate.
(§3) Data Analysis: All calculations were carried out using Microsoft Excel. Peak areas were determined from extracted ion chromatograms. In vitro half-life (t1/2) of parent compound was determined by regression analysis of the percent parent disappearance vs. time curve.
The in vitro half-life (in vitro t1/2) was determined from the slope value:
Conversion of the in vitro t1/2 (in min) into the in vitro intrinsic clearance (in vitro CLint, in μL/min/1×10^6 cells) was done using the following equation (mean of duplicate determinations): • in vitro CLint=kV/N • V=incubation volume (0.2 mL); • N=number of hepatocytes per well (0.1×10^6 cells).
“+++” indicates a CLint value less than 20 mL/min/Kg, “++” indicates a CLint between 20 and 50 mL/min/Kg, and “+” indicates an CLint above 50 mL/min/Kg.

Series [2] in a line: Hepatocyte Stability Assay, mouse hepatocytes. As to conditions: cryopreserved mouse hepatocytes, read-out: Mouse hepatocyte clearance. As for the experimental part: as §1, §2
(§4) Preparation of Hepatocytes: Incubation medium (William's E Medium supplemented with GlutaMAX) and hepatocyte thawing medium were placed in a 37° C. water bath and allowed warming for at least 15 minutes prior to use. A vial of cryopreserved hepatocytes was transferred from storage, ensuring that vials remained at cryogenic temperatures until thawing process ensued. Cells were thawed by placing the vial in a 37° C. water bath and gently shaking the vials for 2 minutes. […] Using an AO/PI Staining, cells were counted and the viable cell density was determined. Cells with poor viability (<75% viability) were determined to be not acceptable for use. […]
as §3
(§5) The in vitro half-life (in vitro t1/2) was determined from the slope value: […]

Series [3] is described as follows: Hepatocyte Stability Assay, rat hepatocytes. The settings on record: cryopreserved rat hepatocytes, read-out: Rat hepatocyte clearance. As for the experimental part:
as §1, §2, §4, §3, §5

Take `Cc1ccccc1-c1ccc2nc(NC(=O)c3ccccn3)sc2n1` [Product 8, N-(5-(o-tolyl)thiazolo[5,4-b]pyridin-2-yl)picolinamide]: the values for the CLint scaled at 1 µM in series [1] and in series [2] were 20 to 50 mL/min/kg and over 50 mL/min/kg, respectively. Regarding `COc1ccccc1-c1ccc2nc(NC(=O)c3ccccn3)sc2n1` [Product 12, N-(5-(2-methoxyphenyl)thiazolo[5,4-b]pyridin-2-yl)picolinamide], the CLint scaled at 1 µM in series [1] lay within 20 to 50 mL/min/kg.

For `Cc1ccccc1-c1ccc2nc(NC(=O)c3ccnn3C)sc2n1` [Product 15, 1-Methyl-N-(5-(o-tolyl)thiazolo[5,4-b]pyridin-2-yl)-1H-pyrazole-5-carboxamide], the CLint scaled at 1 µM is under 20 mL/min/kg in series [1] and over 50 mL/min/kg in series [3].

For `CN(C)c1ccccc1-c1ccc2nc(NC(=O)c3ccnn3C)sc2n1` [Product 18, N-(5-(2-(dimethylamino)phenyl)thiazolo[5,4-b]pyridin-2-yl)-1-methyl-1H-pyrazole-5-carboxamide], the CLint scaled at 1 µM in series [1] was in the range of 20 to 50 mL/min/kg.

For `COc1ccccc1-c1ccc2nc(NC(=O)c3ccnn3C)sc2n1` [Product 25, N-(5-(2-methoxyphenyl)thiazolo[5,4-b]pyridin-2-yl)-1-methyl-1H-pyrazole-5-carboxamide], the CLint scaled at 1 µM in series [1] was under 20 mL/min/kg; in series [3] it was over 50 mL/min/kg; in series [2] it was over 50 mL/min/kg. As for `Cc1ccccc1-c1ccc2nc(NC(=O)N3CCOCC3)sc2n1` [Product 39, N-(5-(o-tolyl)thiazolo[5,4-b]pyridin-2-yl)morpholine-4-carboxamide], the CLint scaled at 1 µM in series [1] is under 20 mL/min/kg. Regarding `Cn1ncnc1C(=O)Nc1cnc2cc(-c3cc(F)ccc3C(F)F)[nH]c2c1` [Product 47], in series [1], the CLint scaled at 1 µM is under 20 mL/min/kg.
